In paper PMC10023787, “Trio-pharmacophore DNA-encoded chemical library for simultaneous selection of fragments and linkers” (Nature Communications, 2023):
Where two headings read alike, the source gives them in different places.

Legend:
MMP-2 = molecular target: T1, MMP-2 (Homo sapiens, UniProt P08253); assay: MMP-2 inhibition assay (fluorogenic peptide substrate); format: biochemical
T1 construct: purchased Sino Biological 10082-HNAH
T1 sequence (P08253 110-660): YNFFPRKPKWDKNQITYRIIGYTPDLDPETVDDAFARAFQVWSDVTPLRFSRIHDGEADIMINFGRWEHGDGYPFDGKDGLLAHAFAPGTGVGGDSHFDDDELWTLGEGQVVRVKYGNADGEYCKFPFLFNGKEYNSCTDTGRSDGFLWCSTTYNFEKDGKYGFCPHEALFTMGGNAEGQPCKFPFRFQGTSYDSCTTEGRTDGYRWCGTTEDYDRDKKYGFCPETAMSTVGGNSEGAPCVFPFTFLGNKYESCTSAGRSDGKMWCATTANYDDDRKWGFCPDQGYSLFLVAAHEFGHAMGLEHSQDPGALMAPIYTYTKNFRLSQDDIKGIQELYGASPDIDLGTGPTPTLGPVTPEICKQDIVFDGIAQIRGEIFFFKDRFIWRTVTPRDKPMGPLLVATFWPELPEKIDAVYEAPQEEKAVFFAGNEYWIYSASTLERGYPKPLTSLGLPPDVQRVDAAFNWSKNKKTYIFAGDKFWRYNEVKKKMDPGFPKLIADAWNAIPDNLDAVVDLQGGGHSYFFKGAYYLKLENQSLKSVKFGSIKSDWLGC
Method in brief: (§1)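 Hydrolysis of DNP-Pro-Leu-Gly-Met-Trp-Ser-Arg (25 μM final) was tracked kinetically at em 360 nm over 30 min. Enzymes, APMA-activated and at 10 nM (MMP-9) or 6.5 nM (MMP-2) final, sat 30 min at RT with inhibitor in pH 7.5 Tris buffer with CaCl2 and Brij 35 first. Logistic fitting of Vmax against concentration gave IC50, in triplicate.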

MMP-9 = molecular target: T2, MMP-9 (Homo sapiens, UniProt P14780); assay: MMP-9 inhibition assay (fluorogenic peptide substrate); format: biochemical; design: remaining enzyme activity (% of control): scale not given here
T2 construct: purchased Sino Biological 10327-HNAH
T2 sequence (P14780 107-707 limits assumed): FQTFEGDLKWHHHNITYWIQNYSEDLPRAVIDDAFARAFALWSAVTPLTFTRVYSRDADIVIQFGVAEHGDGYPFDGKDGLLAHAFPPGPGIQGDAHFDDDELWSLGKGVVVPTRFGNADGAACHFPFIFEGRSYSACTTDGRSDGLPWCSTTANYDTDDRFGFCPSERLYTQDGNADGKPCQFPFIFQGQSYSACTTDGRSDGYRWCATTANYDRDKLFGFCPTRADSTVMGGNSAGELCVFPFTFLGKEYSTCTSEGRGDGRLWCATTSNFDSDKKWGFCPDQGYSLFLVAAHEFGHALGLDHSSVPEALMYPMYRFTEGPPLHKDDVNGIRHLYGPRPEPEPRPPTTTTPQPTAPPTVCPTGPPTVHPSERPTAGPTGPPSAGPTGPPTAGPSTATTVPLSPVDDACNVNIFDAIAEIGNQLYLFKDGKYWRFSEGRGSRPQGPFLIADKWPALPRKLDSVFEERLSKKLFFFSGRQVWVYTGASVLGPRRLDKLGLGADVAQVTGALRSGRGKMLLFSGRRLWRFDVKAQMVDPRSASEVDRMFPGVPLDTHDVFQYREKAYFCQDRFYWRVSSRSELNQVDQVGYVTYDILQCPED
Method in brief: as §1

[1] = Figure 5d; fragment combination joined by linker; n.d: not detected; read-out: MMP2 IC50
[2] = Figure 5d; fragment combination joined by linker; n.d: not detected; read-out: MMP9 IC50
[3] = MMP-2; concentration 1219.00 µM
[4] = mean ± SE; n.d: not detected; Fig. 5d unit inferred, µM; read-out: IC50
[5] = MMP-9; concentration 1219.00 µM
[6] = mean ± SE; n.d: not detected; Fig. 5e prints no unit, µM; read-out: IC50

In the case of Cc1cc(=O)[nH]c(-n2nc(C)c(CCC(=O)NCCSCC(=O)NCCNC(=O)c3cnc4c(c3)nc(O)n4C)c2C)n1 [693_826 24], the IC50 (MMP-2; [1]) is reported as 417 µM and the IC50 (MMP-9; [2]) is reported as 358 µM.
Cc1cc(=O)[nH]c(-n2nc(C)c(CCC(=O)NCCOCCOCCNC(=O)CCC(=O)NCc3c[nH]nn3)c2C)n1 [693+787 Linker 10] was tested, and the “remaining activity (%)” value (MMP-2; MMP-2; concentration 0.0156 µM) was 92.29, the “remaining activity (%)” value (MMP-2; MMP-2; concentration 0.08 µM) was 75.74 and the “remaining activity (%)” value (MMP-2; MMP-2; concentration 0.39 µM) was 87.35. For the same compound, the “remaining activity (%)” value (MMP-2; MMP-2; concentration 1.95 µM) was 94.03, the “remaining activity (%)” value (MMP-2; MMP-2; concentration 9.75 µM) was 78.88 and the “remaining activity (%)” value (MMP-2; MMP-2; concentration 48.76 µM) was 75.04. For the same compound, the “remaining activity (%)” value (MMP-2; MMP-2; concentration 243.80 µM) was 39.80, the “remaining activity (%)” value (MMP-2; [3]) was 7.43 and the IC50 (MMP-2; [4]) was 171 ± 12.6 µM. For the same compound, the “remaining enzyme activity (% of control)” value (MMP-9; MMP-9; concentration 0.08 µM) was 96.44, the “remaining enzyme activity (% of control)” value (MMP-9; MMP-9; concentration 0.39 µM) was 100.55 and the “remaining enzyme activity (% of control)” value (MMP-9; MMP-9; concentration 1.95 µM) was 96.19. The “remaining enzyme activity (% of control)” value (MMP-9; MMP-9; concentration 9.75 µM) was 93.95, the “remaining enzyme activity (% of control)” value (MMP-9; MMP-9; concentration 48.76 µM) was 88.14 and the “remaining enzyme activity (% of control)” value (MMP-9; MMP-9; concentration 243.80 µM) was 47.49. For the same compound, the “remaining enzyme activity (% of control)” value (MMP-9; [5]) was 12.51 and the IC50 (MMP-9; [6]) was 230 ± 51.3 µM.
With Cc1cc(=O)[nH]c(-n2nc(C)c(CCC(=O)NCCSCC(=O)NCc3c[nH]nn3)c2C)n1 [693_787 24] the IC50 (MMP-2; [1]) was 149 µM and the IC50 (MMP-9; [2]) was 270 µM.
For O=C(/C=C/CCCCNC(=O)c1cncc(O)c1)CC(=O)NCCNC(=O)Cn1cnc2c(oc3ccccc32)c1=O [182+828 Linker 12], the remaining activity at 0.0168 µM (MMP-2; MMP-2, concentration 0.0168 µM; read-out: Mean (MMP-2, Supplementary fig 16)) was 102%, the remaining activity at 0.08 µM (MMP-2; MMP-2, concentration 0.08 µM; read-out: Mean (MMP-2, Supplementary fig 16)) was 100% and the remaining activity at 0.42 µM (MMP-2; MMP-2, concentration 0.42 µM; read-out: Mean (MMP-2, Supplementary fig 16)) was 98.9%. The remaining activity at 2.1 µM (MMP-2; MMP-2, concentration 2.10 µM; read-out: Mean (MMP-2, Supplementary fig 16)) was 113%, the remaining activity at 10.52 µM (MMP-2; MMP-2, concentration 10.52 µM; read-out: Mean (MMP-2, Supplementary fig 16)) was 85.5% and the remaining activity at 52.6 µM (MMP-2; MMP-2, concentration 52.60 µM; read-out: Mean (MMP-2, Supplementary fig 16)) was 48.1%. It also gave a remaining activity at 263 µM (MMP-2; MMP-2, concentration 263.00 µM; read-out: Mean (MMP-2, Supplementary fig 16)) of 6.96%, a remaining activity at 1315 µM (MMP-2; MMP-2, concentration 1315.00 µM; read-out: Mean (MMP-2, Supplementary fig 16)) of 0% and an IC50 (MMP-2; [4]) of 50.3 ± 11.1 µM. For the same compound, the remaining activity at 0.0466 µM (MMP-9; MMP-9, concentration 0.0466 µM; read-out: Mean (MMP-9, Supplementary fig 16)) was 97.3%, the remaining activity at 0.23 µM (MMP-9; MMP-9, concentration 0.23 µM; read-out: Mean (MMP-9, Supplementary fig 16)) was 81.8% and the remaining activity at 1.17 µM (MMP-9; MMP-9, concentration 1.17 µM; read-out: Mean (MMP-9, Supplementary fig 16)) was 81.4%. For the same compound, the remaining activity at 5.83 µM (MMP-9; MMP-9, concentration 5.83 µM; read-out: Mean (MMP-9, Supplementary fig 16)) was 70.8%, the remaining activity at 29.14 µM (MMP-9; MMP-9, concentration 29.14 µM; read-out: Mean (MMP-9, Supplementary fig 16)) was 63.8% and the remaining activity at 145.72 µM (MMP-9; MMP-9, concentration 145.72 µM; read-out: Mean (MMP-9, Supplementary fig 16)) was 15.2%. For the same compound, the remaining activity at 728.6 µM (MMP-9; MMP-9, concentration 728.60 µM; read-out: Mean (MMP-9, Supplementary fig 16)) was 0% and the IC50 (MMP-9; [6]) was 45.9 ± 24.2 µM.
For Cc1cc(=O)[nH]c(-n2nc(C)c(CCC(=O)NCCCCCCCCNC(=O)CCC(=O)NCc3c[nH]nn3)c2C)n1 [693+787 Linker 4], the “remaining activity (%)” value (MMP-2; MMP-2; concentration 0.0156 µM) was 90.99, the “remaining activity (%)” value (MMP-2; MMP-2; concentration 0.08 µM) was 98.42 and the “remaining activity (%)” value (MMP-2; MMP-2; concentration 0.39 µM) was 91.65. The “remaining activity (%)” value (MMP-2; MMP-2; concentration 1.95 µM) was 90.86, the “remaining activity (%)” value (MMP-2; MMP-2; concentration 9.75 µM) was 84.93 and the “remaining activity (%)” value (MMP-2; MMP-2; concentration 48.76 µM) was 72.64. For the same compound, the “remaining activity (%)” value (MMP-2; MMP-2; concentration 243.80 µM) was 40.04, the “remaining activity (%)” value (MMP-2; [3]) was 8.77 and the IC50 (MMP-2; [4]) was 169 ± 32.6 µM. The “remaining enzyme activity (% of control)” value (MMP-9; MMP-9; concentration 0.08 µM) was 100.71, the “remaining enzyme activity (% of control)” value (MMP-9; MMP-9; concentration 0.39 µM) was 80.60 and the “remaining enzyme activity (% of control)” value (MMP-9; MMP-9; concentration 1.95 µM) was 86.03. For the same compound, the “remaining enzyme activity (% of control)” value (MMP-9; MMP-9; concentration 9.75 µM) was 91.12, the “remaining enzyme activity (% of control)” value (MMP-9; MMP-9; concentration 48.76 µM) was 86.75 and the “remaining enzyme activity (% of control)” value (MMP-9; MMP-9; concentration 243.80 µM) was 51.81. For the same compound, the “remaining enzyme activity (% of control)” value (MMP-9; [5]) was 0.00 and the IC50 (MMP-9; [6]) was 250 ± 24.6 µM.
For Cc1cc(=O)[nH]c(-n2nc(C)c(CCC(=O)NCCOCCOCCNC(=O)c3cnc4c(c3)nc(O)n4C)c2C)n1 [693+826 Linker 10], the “remaining activity (%)” value (MMP-2; MMP-2; concentration 0.12 µM) was 88.40, the “remaining activity (%)” value (MMP-2; MMP-2; concentration 0.49 µM) was 91.73 and the “remaining activity (%)” value (MMP-2; MMP-2; concentration 1.95 µM) was 91.10. The “remaining activity (%)” value (MMP-2; MMP-2; concentration 7.81 µM) was 90.16, the “remaining activity (%)” value (MMP-2; MMP-2; concentration 31.25 µM) was 89.04 and the “remaining activity (%)” value (MMP-2; MMP-2; concentration 125.00 µM) was 84.64. The “remaining activity (%)” value (MMP-2; MMP-2; concentration 500.00 µM) was 68.06, the “remaining enzyme activity (% of control)” value (MMP-9; MMP-9; concentration 0.12 µM) was 93.04 and the “remaining enzyme activity (% of control)” value (MMP-9; MMP-9; concentration 0.49 µM) was 87.11. The “remaining enzyme activity (% of control)” value (MMP-9; MMP-9; concentration 1.95 µM) was 89.00, the “remaining enzyme activity (% of control)” value (MMP-9; MMP-9; concentration 7.81 µM) was 87.83 and the “remaining enzyme activity (% of control)” value (MMP-9; MMP-9; concentration 31.25 µM) was 75.00. The “remaining enzyme activity (% of control)” value (MMP-9; MMP-9; concentration 125.00 µM) was 69.92 and the “remaining enzyme activity (% of control)” value (MMP-9; MMP-9; concentration 500.00 µM) was 55.88.
Compound Cc1cc(=O)[nH]c(-n2nc(C)c(CCC(=O)NCCNC(=O)CSCCNC(=O)c3cncc(O)c3)c2C)n1 [693_828 24] has an IC50 (MMP-2; [1]) of 59.9 µM and an IC50 (MMP-9; [2]) of 80.5 µM.
Compound O=C(CCC(=O)NCc1c[nH]nn1)NCCCCCCCCNC(=O)Cn1cnc2c(oc3ccccc32)c1=O [182_787 4] has an IC50 (MMP-2; [1]) of 193 µM and an IC50 (MMP-9; [2]) of 134 µM.
For O=C(CCC(=O)NCc1c[nH]nn1)NCCCCCCCCNC(=O)Cn1cnc2c(oc3ccccc32)c1=O [182+787 Linker 4], the “remaining activity (%)” value (MMP-2; MMP-2, concentration 0.0156 µM) was 85.89, the “remaining activity (%)” value (MMP-2; MMP-2, concentration 0.08 µM) was 83.14 and the “remaining activity (%)” value (MMP-2; MMP-2, concentration 0.39 µM) was 79.52. For the same compound, the “remaining activity (%)” value (MMP-2; MMP-2; concentration 9.75 µM) was 75.23, the “remaining activity (%)” value (MMP-2; MMP-2; concentration 48.76 µM) was 75.41 and the “remaining activity (%)” value (MMP-2; MMP-2; concentration 243.80 µM) was 40.43. For the same compound, the “remaining activity (%)” value (MMP-2; [3]) was 0.00, the IC50 (MMP-2; [4]) was 193 ± 24.2 µM and the “remaining enzyme activity (% of control)” value (MMP-9; MMP-9, concentration 0.08 µM) was 91.89. For the same compound, the “remaining enzyme activity (% of control)” value (MMP-9; MMP-9, concentration 0.39 µM) was 89.82, the “remaining enzyme activity (% of control)” value (MMP-9; MMP-9, concentration 1.95 µM) was 91.34 and the “remaining enzyme activity (% of control)” value (MMP-9; MMP-9, concentration 9.75 µM) was 95.46. For the same compound, the “remaining enzyme activity (% of control)” value (MMP-9; MMP-9, concentration 48.76 µM) was 62.79, the “remaining enzyme activity (% of control)” value (MMP-9; MMP-9, concentration 243.80 µM) was 34.94 and the “remaining enzyme activity (% of control)” value (MMP-9; MMP-9, concentration 1219.00 µM) was 0.00. For the same compound, the IC50 (MMP-9; [6]) was 134 ± 39.6 µM.
With O=C(CNC(=O)NC12CC3CC(CC(C3)C1)C2)NCCOCCOCCNC(=O)c1cncc(O)c1 [66_828 10] the IC50 (MMP-2; [1]) was 293 µM and the IC50 (MMP-9; [2]) was 521 µM.
Compound O=C(Cn1cnc2c(oc3ccccc32)c1=O)NCCNC(=O)c1cncc(O)c1 [182_828 1] has an IC50 (MMP-2; [1]) of 77.1 µM and an IC50 (MMP-9; [2]) of 92.1 µM.
